Patent US10920265B2, “Compounds and methods for detection of enzymes that remove methyl succinyl groups from epsilon-amino lysine moieties” (Enzo Life Sciences, Inc., priority 2011, dated 2021)
Several values for one entry are separate records, joined by “and”; a condition that tells them apart may be missing. Equal entries are not always repeated. *: point of attachment. AMC = Cc1cc(=O)oc2cc(N*)ccc12

Tests used:
Experiment in all cases: HDAC activity with fluorogenic lysyl substrates
Assay type in all cases: biochemical
Details in all cases: 50 μM substrate
HDAC5 = molecular target: T1, HDAC5 (Homo sapiens, UniProt Q9UQL6)
T1 construct: made in house; host or cells: E. coli
Protocol: (§1) The Ac-Lys(Succ.)-AMC substrate was tested for activity with recombinant preparations of human HDACs 1-11, SIRTs 1-4, 6 and 7, a complex of HDAC3 with a fragment of the activating protein NCOR1 and with HeLa nuclear extract, a rich source of active HDACs in their native multiprotein complexes.
(§2) Enzyme and extract catalog products obtained from ENZO Life Sciences included: HDAC1 (Cat. # BML-SE456), HDAC2 (Cat. # BML-SE500), HDAC3 (Cat. # BML-SE507), HDAC3/NCOR1 Complex (Cat. # BML-SE515), HDAC6 (Cat. # BML-SE508), HDAC8 (Cat. # BML-SE145), HDAC10 (Cat. # BML-SE559), HDAC11 (Cat. # BML-SE560), SIRT1 (Cat. # BML-SE239), SIRT2 (Cat. # BML-SE251), SIRT3 (Cat. # BML-SE270), SIRT5 (Cat. # BML-SE555), HeLa Nuclear Extract (Cat. # BML-KI140), Trypsin (“Fluor de Lys Developer”, 80 mg/ml bovine trypsin in 1 mM HCl, Cat. # BML-KI105 or “Fluor de Lys Developer II”, 80 mg/ml bovine trypsin in 1 mM HCl, Cat. # BML-KI176). […] Enzymes obtained from BPS Bioscience, San Diego, Calif. included: human recombinants SIRT4 (Cat. #50015), SIRT6 (Cat. #50017), SIRT7 (Cat. #50018). HeLa whole cell extract was obtained from HeLa S3 cells (American Type Culture Collection) grown in a medium of MEM/10% fetal bovine serum (FBS) as follows: 1) 9×10^6 cells were suspended by trypsinization, followed by a phosphate buffered saline (PBS) rinse and addition of MEM/10% FBS (1.5 mL) to eliminate trypsin before transfer to a 15 mL conical tube; 2) cells were sedimented by a low speed centrifugation, gently resuspended in PBS and sedimented again and supernatant removed; 3) lysis was induced by resuspension in 0.8 mL 50 mM Tris/HCl, pH 8.0 with the non-denaturing detergent NP-40 (0.5%), placement on ice and brief vortexing every 5 min. for 30 min.; 4) 100 μl of a concentrated salt solution in the same buffer was added in order to bring the final buffer composition to 50 mM Tris/C1, pH 8.0, 137 mM NaCl, 2.7 mM KCl, 1 mM MgCl2, 0.5% NP-40; 5) particulate matter was cleared by centrifugation and the cleared lysate supernatant transferred to a 1.5 mL Eppendorf tube and stored on ice until use in activity assays.
(§3) Assays were performed at 37° C., according to the manufacturer's instructions for the “SIRT1 Fluorometric Drug Discovery Kit” from Enzo Life Sciences (ELS) (Cat. # BML-AK555), with exceptions described as follows. Where indicated in figures and text, SIRT1 enzyme was replaced with another enzyme or extract and the “Fluor de Lys-SIRT1 Substrate” (Ac-Arg-His-Lys-Lys(Ac)-AMC; ELS Cat. # BML-KI-177) was replaced with another acetylated, succinylated or trifluoroacetylated substrate.

HDAC3 = molecular target: T2, HDAC3 (Homo sapiens, UniProt O15379)
T2 construct: purchased ENZO Life Sciences BML-SE507
Protocol: as §1, §2, §3

HDAC9 = molecular target: T3, HDAC9 (Homo sapiens, UniProt Q9UKV0)
T3 construct: made in house; host or cells: E. coli
Protocol: as §1, §2, §3

HDAC11 = molecular target: T4, HDAC11 (Homo sapiens, UniProt Q96DB2)
T4 construct: purchased ENZO Life Sciences BML-SE560
T4 sequence (Q96DB2 1-347): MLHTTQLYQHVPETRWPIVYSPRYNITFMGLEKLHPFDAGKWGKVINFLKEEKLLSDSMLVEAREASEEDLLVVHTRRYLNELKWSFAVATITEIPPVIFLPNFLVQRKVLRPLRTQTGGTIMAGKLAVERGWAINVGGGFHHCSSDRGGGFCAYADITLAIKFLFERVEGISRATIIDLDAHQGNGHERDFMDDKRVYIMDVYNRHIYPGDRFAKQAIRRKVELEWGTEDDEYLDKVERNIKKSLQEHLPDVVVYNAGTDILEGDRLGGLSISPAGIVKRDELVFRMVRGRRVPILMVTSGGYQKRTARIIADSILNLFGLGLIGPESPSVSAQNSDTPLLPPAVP
Protocol: as §1, §2, §3

HDAC1 = molecular target: T5, HDAC1 (Homo sapiens, UniProt Q13547)
T5 construct: purchased ENZO Life Sciences BML-SE456
Protocol: as §1, §2, §3

HDAC10 = molecular target: T6, HDAC10 (Homo sapiens, UniProt Q969S8)
T6 construct: purchased ENZO Life Sciences BML-SE559
T6 sequence (Q969S8 1-669): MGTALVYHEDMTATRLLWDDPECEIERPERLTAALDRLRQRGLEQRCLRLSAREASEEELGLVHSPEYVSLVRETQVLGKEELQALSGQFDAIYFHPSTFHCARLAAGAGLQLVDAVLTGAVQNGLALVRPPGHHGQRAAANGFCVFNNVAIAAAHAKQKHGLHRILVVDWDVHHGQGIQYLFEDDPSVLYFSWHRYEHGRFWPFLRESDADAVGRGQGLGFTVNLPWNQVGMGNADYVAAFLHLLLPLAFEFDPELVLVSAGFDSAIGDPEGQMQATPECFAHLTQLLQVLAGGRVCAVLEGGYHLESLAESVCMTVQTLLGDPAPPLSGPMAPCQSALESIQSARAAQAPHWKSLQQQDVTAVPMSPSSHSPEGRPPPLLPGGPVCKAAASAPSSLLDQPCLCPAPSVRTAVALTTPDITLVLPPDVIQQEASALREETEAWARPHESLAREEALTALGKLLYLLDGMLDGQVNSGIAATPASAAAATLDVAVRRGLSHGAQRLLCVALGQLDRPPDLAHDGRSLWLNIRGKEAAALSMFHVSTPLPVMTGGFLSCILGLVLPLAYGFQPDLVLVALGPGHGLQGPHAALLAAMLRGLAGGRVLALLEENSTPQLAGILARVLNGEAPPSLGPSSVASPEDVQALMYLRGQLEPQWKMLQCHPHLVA
Protocol: as §1, §2, §3

T2 sequence (O15379 whole entry): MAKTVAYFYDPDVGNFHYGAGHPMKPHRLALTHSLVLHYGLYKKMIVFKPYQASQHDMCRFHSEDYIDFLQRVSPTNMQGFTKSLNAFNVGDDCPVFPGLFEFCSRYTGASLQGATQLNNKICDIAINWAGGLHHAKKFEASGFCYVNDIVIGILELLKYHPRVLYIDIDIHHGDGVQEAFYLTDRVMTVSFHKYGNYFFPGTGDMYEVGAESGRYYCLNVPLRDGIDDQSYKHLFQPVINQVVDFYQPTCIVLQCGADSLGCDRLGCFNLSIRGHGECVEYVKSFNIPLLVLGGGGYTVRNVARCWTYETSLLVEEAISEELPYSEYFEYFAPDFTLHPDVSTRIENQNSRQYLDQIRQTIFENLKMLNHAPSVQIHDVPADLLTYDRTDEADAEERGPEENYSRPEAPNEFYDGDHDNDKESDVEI
T3 sequence (Q9UKV0 644-1066 isoform Q9UKV0-5): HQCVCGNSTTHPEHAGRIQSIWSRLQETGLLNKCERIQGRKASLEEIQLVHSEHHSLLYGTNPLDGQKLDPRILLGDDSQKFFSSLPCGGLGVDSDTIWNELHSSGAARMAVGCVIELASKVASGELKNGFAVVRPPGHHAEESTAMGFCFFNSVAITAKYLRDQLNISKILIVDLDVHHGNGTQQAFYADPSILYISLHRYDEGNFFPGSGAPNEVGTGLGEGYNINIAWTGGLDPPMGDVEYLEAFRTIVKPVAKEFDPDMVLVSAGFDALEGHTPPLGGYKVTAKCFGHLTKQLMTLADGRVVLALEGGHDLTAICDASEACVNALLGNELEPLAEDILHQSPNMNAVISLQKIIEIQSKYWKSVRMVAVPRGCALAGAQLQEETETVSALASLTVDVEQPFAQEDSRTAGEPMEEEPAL
T1 sequence (Q9UQL6 656-1122): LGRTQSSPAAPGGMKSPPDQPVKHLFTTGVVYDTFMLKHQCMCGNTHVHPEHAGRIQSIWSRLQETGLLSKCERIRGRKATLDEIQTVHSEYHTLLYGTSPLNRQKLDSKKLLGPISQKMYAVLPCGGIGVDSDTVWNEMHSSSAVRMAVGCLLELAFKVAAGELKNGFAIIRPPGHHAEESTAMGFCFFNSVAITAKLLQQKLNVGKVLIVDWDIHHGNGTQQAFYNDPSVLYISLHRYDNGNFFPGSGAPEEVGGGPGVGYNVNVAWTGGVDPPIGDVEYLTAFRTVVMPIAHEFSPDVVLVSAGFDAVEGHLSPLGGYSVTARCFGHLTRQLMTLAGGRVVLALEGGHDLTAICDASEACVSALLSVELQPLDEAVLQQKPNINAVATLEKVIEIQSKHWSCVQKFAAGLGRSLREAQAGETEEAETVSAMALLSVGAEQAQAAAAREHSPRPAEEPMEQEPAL
T5 sequence (Q13547 whole entry): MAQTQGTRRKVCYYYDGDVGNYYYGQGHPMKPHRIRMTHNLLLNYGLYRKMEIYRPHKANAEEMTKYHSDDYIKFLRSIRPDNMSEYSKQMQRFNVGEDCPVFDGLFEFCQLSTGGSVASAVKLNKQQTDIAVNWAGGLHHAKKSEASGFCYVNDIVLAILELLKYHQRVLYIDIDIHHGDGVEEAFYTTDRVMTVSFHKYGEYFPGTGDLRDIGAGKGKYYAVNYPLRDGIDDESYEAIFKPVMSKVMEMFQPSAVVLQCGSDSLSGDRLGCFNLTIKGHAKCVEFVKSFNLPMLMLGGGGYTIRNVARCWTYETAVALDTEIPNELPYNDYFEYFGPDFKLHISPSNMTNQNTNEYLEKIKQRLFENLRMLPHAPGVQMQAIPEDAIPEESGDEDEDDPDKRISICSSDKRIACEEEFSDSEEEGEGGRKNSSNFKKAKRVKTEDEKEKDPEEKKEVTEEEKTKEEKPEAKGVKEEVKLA

CC(=O)NCCCCC(NC(C)=O)C(=O)Nc1ccc2c(C)cc(=O)oc2c1 (centres unmarked) [Ac-Lys(Ac.)-AMC, Ac-Lys(ε-acetyl)-AMC, reference compound]
Activity (pmol/min/μg) (HDAC5): Undetectable | Activity (HDAC3; listed as Ac-Lys(Acetyl)-AMC): 3.8 pmol/min/µg and 3.80 pmol/min/µg | Activity (HDAC9): 0.027 pmol/min/µg | Activity (HDAC11): 4.15 pmol/min/µg | Activity (HDAC1): 14.8 pmol/min/µg | Activity (HDAC10): 1.21 pmol/min/µg

CC(=O)N[C@@H](CCCCNC(=O)CCC(=O)O)C(=O)Nc1ccc2c(C)cc(=O)oc2c1 [Compound 1, N—(N^α-acetyl-L-Lysine(N^ε-succinyl))-AMC]
Activity (pmol/min/μg) (HDAC5): Undetectable | Activity (pmol/min/μg) (HDAC3): Undetectable | Activity (pmol/min/μg) (HDAC9): Undetectable | Activity (pmol/min/μg) (HDAC11): Undetectable | Activity (pmol/min/μg) (HDAC1): Undetectable | Activity (pmol/min/μg) (HDAC10): Undetectable

CCCCCCCCCCCCCC(=O)NCCCC[C@H](NC(C)=O)C(=O)Nc1ccc2c(C)cc(=O)oc2c1 [Compound 4, N—(N^α-acetyl-L-Lysine(N^ε-myristoyl))-AMC]
Activity (pmol/min/μg) (HDAC5): Undetectable | Activity (HDAC3): 0.963 pmol/min/µg | Activity (pmol/min/μg) (HDAC9): Undetectable | Activity (HDAC1): 1.651 pmol/min/µg

COC(=O)CCC(=O)NCCCC[C@H](NC(C)=O)C(=O)Nc1ccc2c(C)cc(=O)oc2c1 [Compound 5, N—(N^α-acetyl-L-Lysine(N^ε-methyl succinyl))-AMC]
Activity (pmol/min/μg) (HDAC5): Undetectable | Activity (HDAC3): 0.431 pmol/min/µg | Activity (HDAC9): 0.135 pmol/min/µg | Activity (HDAC1): 0.798 pmol/min/µg

Ac-Arg-His-Lys-Lys(ε-acetyl)-AMC (Ac-RHKK(Ac)-{AMC}; SMILES CC(=O)NCCCC[C@H](NC(=O)[C@H](CCCCN)NC(=O)[C@H](Cc1c[nH]cn1)NC(=O)[C@H](CCCNC(=N)N)NC(C)=O)C(=O)Nc1ccc2c(C)cc(=O)oc2c1) [Ac-RHKK(Ac)-AMC, p53 peptide fluorogenic deacetylase substrate, Cat. # BML-KI177, reference compound]
Activity (pmol/min/μg) (HDAC11): Ac-RHKK(Ac)-AMC/6.09 pmol/min/μg | Activity (pmol/min/μg) (HDAC1): Ac-RHKK(Ac)-AMC/21 pmol/min/μg | Activity (pmol/min/μg) (HDAC10): Ac-RHKK(Ac)-AMC/2.72 pmol/min/μg
